Type in all cases: functional
The test system of test [1] is Rattus norvegicus. Put plainly: Tested for anticonvulsant activity in 3 rats after oral administration of 30 mg/kg po dose for protection against maximal electroshock in rat MES test; 0/3. In general terms: Protection in the maximal electroshock model is a classic sign of anticonvulsant action.
Test [2] concerns Rattus norvegicus. Description: Tested anticonvulsant activity in 6 rats after oral administration of 30 mg/kg po dose for rotarod performance; 0/6. On the technique in general: The rotarod test checks motor coordination on a turning rod.
The subject of test [3] is Rattus norvegicus. Put plainly: Anticonvulsant activity in rats after oral administration of 30 mg/kg dose(effective dosage).
Test [4] relates to Rattus norvegicus. Put plainly: Tested for anticonvulsant activity in 3 rats after oral administration of 30 mg/kg po dose for protection against maximal electroshock in rat MES test; 2/3.
Test [5] relates to Rattus norvegicus. Description: Tested for anticonvulsant activity in 3 rats after oral administration of 30 mg/kg po dose for protection against maximal electroshock in rat MES test; 3/3.
The test system of test [6] is Rattus norvegicus. Put plainly: Tested anticonvulsant activity in 6 rats after oral administration of 300 mg/kg po dose for rotarod performance; 0/6.
The subject of test [7] is Rattus norvegicus. Put plainly: Tested anticonvulsant activity in 6 rats after oral administration of 30 mg/kg po dose for rotarod performance; 1/6.
For test [8], the system named is Rattus norvegicus. Put plainly: Tested for anticonvulsant activity in 3 rats after oral administration of 30 mg/kg po dose for protection against maximal electroshock in rat MES test; 1/3.
Test [9] deals with Rattus norvegicus. Description: Anticonvulsant activity in rats after oral administration of 30 mg/kg dose for rotarod performance; 0/6.

We go through 28 molecules from ChEMBL document CHEMBL1122257, “Synthesis and anticonvulsant activity of some tetracyclic indole derivatives” (1983).

The structures appear in SMILES notation.

With `CN(C)C(=O)C1CCc2cccc3c4c(n1c23)CCCCC4` (stereo unspecified), the Reactors/Test group in [1] and in [2] was 0 throughout.
As for `CN(C)CC1Cc2cccc3c4c(n(c23)C1)CCCCC4` (stereo unspecified), the Reactors/Test group in test [1] and in [2] was 0 throughout.
For the molecule `CN(C)CC1Cc2cccc3c4c(n1c23)CCCCCC4` (stereo unspecified), the Reactors/Test group in test [1] and in [2] was 0 in each case.
As a reminder, the ED50 is the dose at which the effect has come halfway, by size or by number of responders. Low values mean an effect at a small dose, high ones a need for a large dose. `CN(C)CC1CCc2cccc3c4c(n1c23)CCCCC4` (stereo unspecified) yielded an ED50 in [3] of 78.9 mg/kg. Further, the Reactors/Test group is given as 0 in test [2] and 2 in test [4].
In turn, `CN(C)CCC1CCc2cccc3c4c(n1c23)CCCCC4` (stereo unspecified) returned an ED50 in test [3] of 27.4 mg/kg. The values for the Reactors/Test group in test [2] and in test [5] were 0 and 3, respectively.
Regarding `CN(C)CC1CCc2cccc3c4c(n1c23)-c1ccccc1SC4` (stereo unspecified), the Reactors/Test group in test [1] and in [2] was 0 in each case.
In test [3], `CN(C)CC1Cc2cccc3c4c(n1c23)CCCC4` (stereo unspecified) displayed an ED50 of 19.2 mg/kg. Further, the Reactors/Test group in test [2] worked out at 0; in test [5], 3.
On to `CN(C)CCC1CCc2cccc3c4c(n1c23)CCN(C)C4` (stereo unspecified), for which the Reactors/Test group in test [1] and in [2] was 0 each time.
As to `CN(C)CC1CCc2cccc3c4c(n1c23)CCCCCC4` (stereo unspecified), the Reactors/Test group in test [1] and in [2] was 0 throughout.
Consider `CN(C)CC1Cn2c3c(c4cccc1c42)CCCCCC3` (stereo unspecified), for which the Reactors/Test group in test [1] and in [2] was 0 each time.
In turn, `CN(C)CC1CCc2cccc3c4c(n1c23)CCC4` (stereo unspecified) came in with an ED50 in test [3] of 12.5 mg/kg. In addition, the figures for the Reactors/Test group in test [2] and in [5] were 0 and 3, respectively.
For `CN(C)CC1Cn2c3c(c4cccc1c42)CCCCC3` (stereo unspecified), the Reactors/Test group in test [1] and in test [2] was 0 in each case.
`CN(C)CC1CCc2cccc3c4c(n1c23)CCCC4` (stereo unspecified): the values for the Reactors/Test group in [6] and in test [5] were 0 and 3, respectively.
As to `CN1CCN(C(=O)C2CCc3cccc4c5c(n2c34)CCCCC5)CC1` (stereo unspecified), the Reactors/Test group in test [1] and in test [2] was 0 throughout.
Regarding `CN(C)CCC1CCc2cccc3c4c(n1c23)CCCC4` (stereo unspecified), the Reactors/Test group in test [2] is reported as 0; in test [4], 2.
In the case of `CNC(=O)C1CCc2cccc3c4c(n1c23)CCCC4` (stereo unspecified), the Reactors/Test group in test [1] and in [2] was 0 throughout.
For the molecule `CNC(=O)C1CCc2cccc3c4c(n1c23)CCC4` (stereo unspecified), the Reactors/Test group in test [1] and in [2] was 0 each time.
For `CN(C)CCC1CCc2cccc3c4c(n1c23)CCCCCC4` (stereo unspecified), the Reactors/Test group in test [1] and in test [2] was 0 each time.
Take `CN(C)CC1CCc2cccc3c4c(n1c23)-c1ccccc1CC4` (stereo unspecified): the Reactors/Test group in [7] and in test [8] was 1 throughout.
As to `CNC(=O)C1CCc2cccc3c4c(n1c23)CCCCC4` (stereo unspecified), the ED50 in test [3] turned out to be 12.9 mg/kg. The Reactors/Test group amounted to 0 in test [2] and 3 in test [5].
Regarding `CN(C)CC1CCc2cccc3c4c(n1c23)CCSC4` (stereo unspecified), the Reactors/Test group in test [1] and in test [2] was 0 in each case.
For the molecule `CN(C)CCC1CCc2cccc3c4c(n1c23)CCSC4` (stereo unspecified), the Reactors/Test group in [1] is 0; in [7], 1.
`CN(C)CCC1CCc2cccc3c4c(n1c23)CCC4` (stereo unspecified): the Reactors/Test group in test [1] and in test [2] was 0 each time.
Turning to `CN(C)CC1Cc2cccc3c4c(n(c23)C1)Cc1ccccc1-4` (stereo unspecified), the Reactors/Test group in test [1] was determined as 0; in test [7] it was 1.
Taken in the same sequence, the figures for `CN(C)CC1Cc2cccc3c4c(n(c23)C1)CCCCCC4` (stereo unspecified) were 0 and 1.
As to `CN(C)CC1Cc2cccc3c4c(n1c23)CCCCC4` (stereo unspecified), the Reactors/Test group in [1] and in test [2] was 0 each time.
`CNCC1CCc2cccc3c4c(n1c23)CCCCC4` (stereo unspecified): the Reactors/Test group in test [1] and in test [2] was 0 throughout.
On to `O=C1NC(=O)C(c2ccccc2)(c2ccccc2)N1` [PHENYTOIN], for which the ED50 in [3] is 42.3 mg/kg. Moreover, in [9], the Reactors/Test group is recorded as 0.
